Measurements taken from publication PMC6123691, “Structural basis for promotion of duodenal iron absorption by enteric ferric reductase with ascorbate” (Communications Biology, 2018).

T1: duodenal cytochrome b (Dcytb) (Homo sapiens, UniProt Q53TN4)
T1 construct: gene CYBRD1; full-length Dcytb (residues 1–286); atomic model residues 6–230
T1 sequence (Q53TN4 1-286): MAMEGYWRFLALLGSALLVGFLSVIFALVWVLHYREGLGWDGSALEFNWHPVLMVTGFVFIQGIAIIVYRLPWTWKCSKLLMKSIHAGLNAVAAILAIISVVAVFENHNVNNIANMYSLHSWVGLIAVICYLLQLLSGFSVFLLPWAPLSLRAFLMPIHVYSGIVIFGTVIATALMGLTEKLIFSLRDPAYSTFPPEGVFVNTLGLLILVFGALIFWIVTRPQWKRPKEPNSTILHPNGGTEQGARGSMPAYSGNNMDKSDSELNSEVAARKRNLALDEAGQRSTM


Experiments:
[1] = biological target: T1, duodenal cytochrome b (Dcytb); test: X-ray crystal structure ([…] Å, soaked with […] sodium ascorbate and ZnSO4); stopped-flow heme reduction; assay type: binding
[2] = biological target: the molecule itself; test: crystal structure; lipidic cubic phase (monoolein) crystals, space group C2; substrate-free form at 2.6 Å and Zn2+/ascorbate-soaked form at 2.8 Å; the dimer is formed by crystallographic twofold symmetry

Molecule | X-ray crystal structure (2.8 Å, soaked with 1 M sodium ascorbate and ZnSO4); sto [1] | stoichiometry N [2]
O=C1O[C@H]([C@@H](O)CO)C(O)=C1O [Asc, ascorbate] | The electron density from one ascorbate molecule was observed on the cytoplasmic surface of Dcytb in proximity to the heme | 
human duodenal cytochrome b (Dcytb) (enzyme, UniProt Q53TN4 1-286, looked up, human duodenal cytochrome b (Dcytb), member of the cytochrome b561 family, full-length, residues 1-286; codon-optimized gene; the atomic model includes only residues 6-230; A thrombin cleavage site stood between the protein and the C-terminal hexa-His tag (pET-21b(+)); after cleavage some residues of the site may remain at the C-terminus; Integral membrane protein, solubilised in DDM and …) MAMEGYWRFLALLGSALLVGFLSVIFALVWVLHYREGLGWDGSALEFNWHPVLMVTGFVFIQGIAIIVYRLPWTWKCSKLLMKSIHAGLNAVAAILAIISVVAVFENHNVNNIANMYSLHSWVGLIAVICYLLQLLSGFSVFLLPWAPLSLRAFLMPIHVYSGIVIFGTVIATALMGLTEKLIFSLRDPAYSTFPPEGVFVNTLGLLILVFGALIFWIVTRPQWKRPKEPNSTILHPNGGTEQGARGSMPAYSGNNMDKSDSELNSEVAARKRNLALDEAGQRSTM |  | 2
